Legend:
HMC-1.2 cell line = assay: Annexin V-PI FACS apoptosis analysis, HMC-1.2; assay type: cell-based; settings: HMC-1.2, 0.1 and 1 μM, FIG. 7
Procedure: (§1) Specifically, the c-kit D816V mutant Ba/F3 cell line was adjusted to a concentration of 1×10^6 cells/ml and treated with each of PHI-101 at concentrations of 0.1, 1 and 10 μM and the control compound sunitinib at concentrations of 1 and 10 μM for 24 hours. Thereafter, the medium was removed and the cells were washed once with 1 ml PBS. The PBS was removed by centrifugation at 1,000 rpm for 5 minutes. The cells were dissolved in 100 μl of PBS containing Ca^2+ and Mg^2+ and allowed to react with 5 μl of Annexin V for 20 minutes. After completion of the reaction, 400 μl of PBS containing Ca^2+ and Mg^2+ was added, and 5 μl of propidium iodide (PI) was added, and then the degree of apoptotic cell death was analyzed by FACS (fluorescence activated cell sorter) assay using a flow cytometer (FACS-C6, BD).
Specifically, the apoptotic effect of PHI-101 against the HMC-1.2 cell line was analyzed in the same manner as in Example 1-3, except that the HMC-1.2 cell line was treated with each of the control compounds at a concentration of 1 μM and PHI-101 at concentrations of 0.1 and 1 μM.

[1] = tested on: Ba/F3 cell line with a c-kit D816V mutation; assay: Growth inhibition of c-kit D816V Ba/F3 cell line (Celltiter glo); assay type: cell-based; settings: GI50 comparison, Table 1
Procedure: Specifically, 100 μl of a Ba/F3 cell line with a c-kit D816V mutation (FIG. 1) was added to each well of a 96-well plate at a concentration of 10,000 cells/100 μl. After 4 hours, 100 μl of the Ba/F3 cell line was treated with 0.5 μl of each of control compounds and PHI-101 (10-point 1:3 serial dilutions) to a final concentration of up to 50 μM, and cultured at 37° C. under 5% CO2 for 72 hours. As the control compounds, imatinib and sunitinib which are c-kit inhibitors were used. After culture, the cells were counted using a Celltiter glo assay kit (Promega), and the 50% growth inhibition values (GI50, μM) of the control compounds and PHI-101 were measured.

[2] = tested on: c-kit phosphorylation and downstream signaling (p-STAT3, p-ERK1/2) in the c-kit D816V mutant Ba/F3 cell line; assay: Western blot of c-kit phosphorylation and downstream signaling in c-kit D816V Ba/F3; assay type: cell-based; settings: 0.1, 1 and 10 μM, 2 hours, FIG. 2
Procedure: The inhibitory activities of control compounds and PHI-101 against c-kit phosphorylation and downstream signaling (p-STAT3, p-ERK1/2) in the c-kit D816V mutant Ba/F3 cell line were measured, and as the control compounds, sunitinib and dasatinib were used.
Specifically, the c-kit D816V mutant Ba/F3 cell line was dispensed at a concentration of 1×10^6 cells/ml, treated with each of the control compounds and PHI-101 at concentrations of 0.1, 1 and 10 μM, and then cultured for 2 hours. Next, lysates of the cells were obtained using lysis buffer (50 mM Tris-HCl pH 7.5, 1% NP40, 1 mM EDTA, 150 mM NaCl, 5 mM, Na3VO4 and 2.5 mM NaF, and a protease inhibitor cocktail). Equal amounts of the cell lysates were electrophoresed using 8% SDS-PAGE gel at 100 V for 1 hour and 30 minutes, and the separated protein was electrically transferred to nitrocellulose membranes. The membranes were blocked with 5% skim milk at room temperature for 30 minutes, and allowed to react with primary antibodies (diluted 1:5,000), including p-c-kit tyrosine 719 (Y719), p-STAT3 tyrosine 705 (Y705) and p-ERK1/2 threonine 202/tyrosine 204 (T202/Y204) at 4° C. for 16 to 20 hours. […] Next, the membranes were washed three times with TBST for 5 minutes each time and treated with a chemiluminescent substrate reagent, and the expression level of the protein was measured by detecting luminescence with an X-ray film in the dark.

[3] = tested on: c-kit D816V mutant Ba/F3 cell line; assay: Annexin V-PI FACS apoptosis analysis, c-kit D816V Ba/F3; assay type: cell-based; settings: 0.1, 1 and 10 μM, 24 hours, FIG. 3
Procedure: as §1

[4] = tested on: inflammatory response caused by mastocytosis (HMC-1.2 mouse model); assay: Spleen/body weight ratio in mastocytosis mouse model (inflammatory response); assay type: in vivo, NOD SCID female mice
Procedure: As mice, 6-8-week-old NOD SCID female mice (18 to 22 g) (GemPharmatech Co., Ltd.) were prepared. Mice were acclimatized for 7 days before use in the experiment, and mice with abnormal health were excluded from the experiment. Mice were bred in a cage (300×180×150 mm) at a 22±3° C. and a relative humidity of 40% to 70% with a 12-hr light/12-hr dark cycle. Mice were allowed access to sterilized dry granular food (Beijing Keaoxieli Feed Co., Ltd., Beijing, China) and water ad libitum for the entire experimental period except for the period specified in the protocol.
50 ml of HMC-1.2 cells suspension-cultured in a 75T flask were placed in a conical tube and centrifuged at 1,200 rpm for 2 minutes, centrifuged with DPBS (Dulbecco's Phosphate-Buffered Saline, Welgene) at 1,200 rpm for 2 minutes, washed, and then suspended in RPMI1640 (Welgene) without antibiotics and fetal bovine serum (FBS). Then, the cells were stained with trypan blue, counted with a hemocytometer, and then HMC-1.2 cells (1×10^6) in a mixture of 0.1 ml L-15 and Matrigel (BD, cat. No. 356234) (1:1) were subcutaneously injected into the right flanks of mice anesthetized by intraperitoneal administration of Avertin (250 mg/kg), thus inducing tumors.
Thereafter, when the average tumor volume reached 150 to 200 mm^3, 4 mice were assigned to each group so that the average tumor volume at each group and treatment time was the same between the groups. Then, each of imatinib at a dose of 90 mg/kg, sunitinib at doses of 20 and 40 mg/kg, and PHI-101 at doses of 7, 20, 40 and 80 mg/kg was administered orally to the mice once daily for 3 weeks. For oral administration, each compound was dissolved in 5% 1-methyl-2-pyrrolidone and then completely mixed in 15% Kolliphor, 30% PEG E400 HS15 and 50% 0.05M citric acid.
Specifically, 3 weeks after administering each drug to the mastocytosis mouse model of Example 3-1, the mice were sacrificed, the body weight and spleen weight were measured using a digital scale, and then the spleen/body weight ratio was calculated.

[5] = 7 mg/kg oral once daily for 3 weeks
[6] = 20 mg/kg oral once daily for 3 weeks
[7] = 40 mg/kg oral once daily for 3 weeks
[8] = 80 mg/kg oral once daily for 3 weeks

NC(=O)Nc1cc(C#Cc2cccc(F)c2)sc1C(=O)N[C@H]1CCCNC1 [PHI-101]
apoptosis induction (Annexin V-PI FACS) (HMC-1.2 cell line): strongly induced apoptosis even at a concentration of 1 μM
selectivity for c-kit D816V Ba/F3 over parental Ba/F3 [1]: higher selectivity for the c-kit D816V Ba/F3 mutant cell line than for the parental Ba/F3 cell line
inhibitory activity against p-c-kit (Y719) phosphorylation [2]: higher inhibitory activity against p-c-kit (Y719) phosphorylation than the control compounds
apoptosis induction (Annexin V-PI FACS) [3]: strongly induced apoptosis even at a concentration of 0.1 μM
Spleen/body weight ratio % of control [4, 5]: 105.0%
Spleen/body weight ratio Inhibition (%) [4, 5]: −5%
Spleen/body weight ratio % of control [4, 6]: 95.0%
Spleen/body weight ratio Inhibition (%) [4, 6]: 5%
Spleen/body weight ratio % of control [4, 7]: 55.7%
Spleen/body weight ratio Inhibition (%) [4, 7]: 44.3%
Spleen/body weight ratio % of control [4, 8]: 46.3%
Spleen/body weight ratio Inhibition (%) [4, 8]: 53.7%
spleen/body weight ratio compared to control group ([4]; 7, 20, 40 and 80 mg/kg, FIGS. 13 and 14): decreased the spleen/body weight ratio in a concentration-dependent manner

From patent publication US20230263792A1, “USE OF 2,3,5-SUBSTITUTED THIOPHENE COMPOUND FOR PREVENTING, ALLEVIATION, OR TREATING MASTOCYTOSIS” (PHAROS IBIO CO., LTD, priority 2020, published 2023)
